Data set [1] can be described thus: Liver microsome metabolic stability, MLM. Particulars: MLM (single value or second of two), 1 μM compound, 0.25 mg/mL protein; for Met Stab % (60 mins HLM/MLM): percent remaining at 60 min, 1 mM NADPH; for half-life at 1 µM: mouse, liver microsomes, pH 7.4, read-out: T1/2 in (mins HLM/MLM). The data set is classed as in vitro ADME. In outline:
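Compound (1 μM) incubated at 37 °C with mouse or human liver microsomes (0.25 mg/mL) in 50 mM phosphate pH 7.4 with 1 mM NADPH; samples quenched at 0–60 min. Parent loss by LC-MS/MS gives t½ (0.693/k) and CL'int scaled by 45 mg protein/g liver.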
Background: Liver microsomes are a subcellular fraction often used to study metabolism.

For data set [2], the system named is 42D^ENZR cells vs 16D^CRPC cells. The experiment in a line: Cell proliferation specificity, 42D^ENZR cells vs 16D^CRPC cells. The format is cell-based. Particulars: 42D cells express BRN2, 16D cells do not; some also LNCaP; result in words. The procedure:
(§1) Plate 42DENZR (˜7000 cells per well) and 16D^CRPC (˜5000 cells per well) cells in 96 well plate with a volume of 100 μL per well. • 2. Next day 1 mL aliquots of media are combined with 3× the desired concentration of compounds. The aliquots are vortexed and 50 μL of each 3× concentration is added to the 100 μL of media in each well to give the ix desired concentration.
(§2) The following are the desired concentrations:
(§3) 0, 10 nM, 100 nM, 500 nM, 1 μM, 2.5 μM, 5 μM, 10 μM, 15 μM, […], 30 μM. • 3. Approximately 72 hours later, 17 μL of 10% Glutaraldehyde is added to each well and plates are placed on a shaker for 20-30 minutes. • 4. Media is washed off the fixed cells by slow submersion in a container of water. Then the water is removed by tapping the plate upside down. • 5. 75 μL of Crystal Violet™ solution is added into the 96 well plates and placed on a shaker for ˜30 minutes. • 6. Media is washed off the fixed cells by repeated slow submersion in a container of water and the plates are allowed to dry over-night. • 7. Next day, 75 μL of Sorensen Solution is accurately pipetted into each well. The plates placed on a shaker for ˜30 minutes. • 8. Absorbance is measured in the plate at 590 nm.
Compounds that Show Specificity Towards 42D^ENZR Cells Vs 16D^CRPC Cells Progress to Step 4.
Where data is not available “na” is inserted.

Another data set has as its target T1, BRN2 (Homo sapiens, UniProt P20265).
T1 sequence (P20265 1-443): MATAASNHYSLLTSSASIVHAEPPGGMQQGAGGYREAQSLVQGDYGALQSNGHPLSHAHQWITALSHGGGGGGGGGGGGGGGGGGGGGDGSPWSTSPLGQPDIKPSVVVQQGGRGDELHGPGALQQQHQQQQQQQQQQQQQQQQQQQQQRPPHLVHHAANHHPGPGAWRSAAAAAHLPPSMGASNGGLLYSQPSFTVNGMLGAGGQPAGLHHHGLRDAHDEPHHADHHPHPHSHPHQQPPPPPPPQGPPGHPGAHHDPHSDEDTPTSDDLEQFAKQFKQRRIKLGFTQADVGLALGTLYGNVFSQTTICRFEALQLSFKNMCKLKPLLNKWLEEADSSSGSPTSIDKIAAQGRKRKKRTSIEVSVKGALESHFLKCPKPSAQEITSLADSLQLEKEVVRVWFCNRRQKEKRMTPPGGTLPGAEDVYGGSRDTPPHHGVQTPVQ
The data set is described as follows: cell-based. Particulars: negative = activation; for inhibition at 10 µM: read-out: % BRN2 Inhibition (10 μM), 10 μM compound, 24 hours, 42D^ENZR cells stably expressing BRN2-luciferase reporter; for inhibition at 30 µM: read-out: % BRN2 Inhibition (30 μM), 30 μM compound, 24 hours, 42D^ENZR cells stably expressing BRN2-luciferase reporter. For orientation: Reporter assays use an easily measured gene product as a stand-in for the process of interest.

Another data set has as its system 42D^ENZR cells. The experiment in a line: Cell proliferation (crystal violet), BRN2 expressing 42D^ENZR cells. The format is cell-based. Particulars: 42D cells, approximately 72 hours. The procedure:
as §1, §2, §3

The inhibition is the change of the read-out against control, counted positive when it falls. For `c1coc(-c2ncc(-c3cc4ccccc4o3)s2)c1` [VPC-18-90, 5-(benzofuran-2-yl)-2-(furan-2-yl)thiazole], in data set [1], the “Met Stab % (60 mins HLM/MLM)” value came out at 0% and the half-life at 1 µM is 8 min. Further, the specificity result in data set [2] is on record as “VPC-18-90 (specific)”. Moreover, on BRN2, the inhibition at 10 µM was determined as 80% and the inhibition at 30 µM is 92%.

Consider `Clc1ccc2cc(-c3csc(-c4ccc[nH]4)n3)oc2c1` [VPC-18-94, 4-(6-chlorobenzofuran-2-yl)-2-(1H-pyrrol-2-yl)thiazole], for which, in data set [1], the “Met Stab % (60 mins HLM/MLM)” value stood at 21% and the half-life at 1 µM was 27 min. Also, the specificity entry in data set [2] is “VPC-18-94 (specific no effect on LNCaP and 16D)”. Also, at BRN2, the inhibition at 10 µM worked out at 79.6% and the inhibition at 30 µM was 86.9%.

As for `FC(F)(F)c1ccc2cc(-c3csc(-c4ccoc4)n3)oc2c1` [VPC-18-104, 2-(furan-3-yl)-4-(6-(trifluoromethyl)benzofuran-2-yl)thiazole], in data set [1], the “Met Stab % (60 mins HLM/MLM)” value is recorded as 1% and the half-life at 1 µM came out at 10 min. In data set [2], the specificity entry is “VPC-18- 104 (specific 42D not 16D)”. Also, on BRN2, the inhibition at 10 µM came to 87.1% and the inhibition at 30 µM came out at 94.2%.

Take `Clc1ccc2cc(-c3csc(-c4ccoc4)n3)oc2c1` [VPC-18-105, 4-(6-chlorobenzofuran-2-yl)-2-(furan-3-yl)thiazole]: in data set [1], the “Met Stab % (60 mins HLM/MLM)” value was determined as 1% and the half-life at 1 µM amounted to 10 min. The specificity result in data set [2] is recorded as “VPC-18- 105 (specific 42D not 16D)”. In addition, on BRN2, the inhibition at 10 µM came to 79.5% and the inhibition at 30 µM was 92%.

With `FC(F)(F)c1ccc2cc(-c3csc(-c4ccc[nH]4)n3)oc2c1` [VPC-18-108], in data set [1], the “Met Stab % (60 mins HLM/MLM)” value worked out at 15% and the half-life at 1 µM was found to be 31 min. Moreover, in data set [2], the specificity entry is recorded as “VPC-18- 108 (specific)”. In addition, on BRN2, the inhibition at 10 µM worked out at 84.4% and the inhibition at 30 µM was found to be 92.6%.

`Cc1ccc2cc(-c3csc(-c4ccco4)n3)oc2c1` [VPC-18-110, 2-(furan-2-yl)-4-(6-methylbenzofuran-2-yl)thiazole]: in data set [1], the “Met Stab % (60 mins HLM/MLM)” value is 1% and the half-life at 1 µM was 10 min. In addition, the specificity entry in data set [2] is recorded as “VPC-18- 110 (specific)”. Besides, on BRN2, the inhibition at 10 µM stood at 93.5% and the inhibition at 30 µM amounted to 98.6%.

`Clc1ccc2cc(-c3csc(-c4cc[nH]c4)n3)oc2c1` [VPC-18-115]: in data set [1], the “Met Stab % (60 mins HLM/MLM)” value is on record as 18% and the half-life at 1 µM turned out to be 22 min. Moreover, the specificity result in data set [2] is given as “VPC-18- 115 (specific)”. Moreover, at BRN2, the inhibition at 10 µM amounted to 98% and the inhibition at 30 µM stood at 99%.

As usually defined, the IC50 is the midpoint of a concentration-inhibition curve. Higher therefore signals weaker potency. Consider `Clc1ccc2cc(-c3cccc(-c4ccc[nH]4)n3)oc2c1` [VPC-18-149], for which, in data set [1], the “Met Stab % (60 mins HLM/MLM)” value is reported as 21% and the half-life at 1 µM came to 30 min. Further, the midpoint of inhibition with 42D^ENZR cells, the IC50, lay at 1 µM. Also, the specificity entry in data set [2] is reported as “not 16D”. Also, on BRN2, the inhibition at 10 µM is 94.6% and the inhibition at 30 µM amounted to 96.2%.

For the compound `Cc1c(-c2csc(-c3ccc[nH]3)n2)oc2cc(Cl)ccc12` [VPC-18-155], in data set [1], the “Met Stab % (60 mins HLM/MLM)” value came to 24% and the half-life at 1 µM worked out at 31 min. In the data set on 42D^ENZR cells, the IC50 is 10 µM. The specificity result in data set [2] was “not 16D”.

The record behind these values is patent US20220106304A1, “Transcription Factor BRN2 Inhibitory Compounds as Therapeutics and Methods for Their Use” (The University of British Columbia, priority 2018, published 2022).
